The text below walks through data of ChEMBL document CHEMBL1667794, “Synthesis of bi-substrate state mimics of dihydropteroate synthase as potential inhibitors and molecular probes” (Bioorg Med Chem, 2011).

Experiment [1] deals with T1, Dihydropteroate synthase (Bacillus anthracis) (UniProt Q81VW8).
T1 sequence (whole entry): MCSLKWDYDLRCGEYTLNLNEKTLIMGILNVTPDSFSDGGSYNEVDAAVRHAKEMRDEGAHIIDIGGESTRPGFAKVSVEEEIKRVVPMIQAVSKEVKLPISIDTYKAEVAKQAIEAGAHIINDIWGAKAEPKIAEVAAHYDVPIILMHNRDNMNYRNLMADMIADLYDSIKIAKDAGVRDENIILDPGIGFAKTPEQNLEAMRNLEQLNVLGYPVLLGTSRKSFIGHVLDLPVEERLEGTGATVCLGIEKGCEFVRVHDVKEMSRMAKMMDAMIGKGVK
The experiment can be described thus: Inhibition of Bacillus anthracis DHPS at 200 uM after 10 mins.

Experiment [2] addresses T1, Dihydropteroate synthase (Bacillus anthracis). The experiment can be described thus: Inhibition of Bacillus anthracis DHPS at 200 uM.

The inhibition is the share of the control response that was lost under treatment. Higher therefore signals a response far below the control. `Nc1nc2c(c(=O)[nH]1)CC(N(CCP(=O)(O)O)Cc1ccc(C(=O)O)cc1)CN2` (stereo not drawn): the inhibition in experiment [1] is 5.7%; in experiment [2] it was 3.6%.
In the case of `Nc1nc2ncc(N(CCCP(=O)(O)O)Cc3ccc(C(=O)O)cc3)cc2c(=O)[nH]1`, the inhibition in experiment [1] came to 44.3%; in experiment [2], 32.9%.
In the same order, the values of `Nc1nc2ncc(N(CCP(=O)(O)O)Cc3ccc(C(=O)O)cc3)cc2c(=O)[nH]1` are 30.5% and 16.3%.
In the same order, the values of `Nc1nc2c(c(=O)[nH]1)C[C@@H](N(CCCP(=O)(O)O)Cc1ccc(C(=O)O)cc1)CN2` are 6.3% and 3.9%.
